From patent publication US20240425486A1, “FUSED BICYCLIC SUBSTITUTED N-(1H-INDOL-7-YL)BENZENESULFONAMIDES AND USES THEREOF” (Triana Biomedicines, Inc., priority 2021, published 2024)

Tests used:
DCAF15/RBM39 = DCAF15/RBM39 (Homo sapiens (Human), UniProt Q14498+Q66K64); experiment: AlphaLISA compound-induced DCAF15-RBM39 ternary complex formation; type: binding; conditions: His-tagged DCAF15 complex and biotin-carrying RBM39
Description: Example 7: Quantitative Evaluation of Compound-Induced Ternary Complex Formation Using Amplified Luminescent Proximity Homogeneous Assay
Compound-induced DCAF15-RBM39 ternary complex formation was monitored using AlphaLISA® assays (Perkin Elmer, Waltham, MA). Test compounds were first collected in a 384-well microplate (cat. #781280, Grenier Bio-One, Monroe, NC) as 2 mM stocks in 100% dimethyl sulfoxide (DMSO). These stocks were then serially diluted in DMSO by 3-fold into a new plate (cat. #781280, Grenier Bio-One, Monroe, NC) using a Mosquito HTS dispenser (Mosquito® HTS, SPT Labtech, Boston, MA). 0.2 μL of these diluted stocks were then dispensed into a 384-well Optiplate (cat. #6007290, Perkin Elmer, Waltham, MA) in duplicate wells, to assemble the final assay plate consisting of duplicated dose ranges. Separately, a protein mixture consisting of His-tagged DCAF15 complex and biotin-carrying RBM39, each at 408 nM (2.04×), was prepared in 50 mM HEPES, pH 7.5, 100 mM NaCl, 2 mM MgCl2, 0.1% BSA, 2 mM TCEP, 0.05% Tween-20 (dilution buffer). 9.8 μL of this protein mixture was then mixed with the compounds in the assay plate and incubated for one hour at room temperature. Reaction mixtures with no compounds added were included as negative controls, while a His-tagged and biotinylated GST protein was included to track general assay performance. Nickel Chelate AlphaLISA Acceptor beads (cat. #AL108M, Perkin Elmer, MA) and AlphaScreen Streptavidin Donor beads (cat. #6760002, Perkin Elmer, Waltham, MA) were prepared separately in the dilution buffer as 4× stocks (80 ug/ml). The beads were then added to the assay plate sequentially with incubation at room temperature for 1-2 hours after each addition. Signals were recorded using EnVision 2104 Multilabel Plate Reader (Perkin Elmer, Waltham, MA) and titration curves were generated in GraphPad Prism (7.00, GraphPad, La Jolla, CA).

DCAF15 = DCAF15 (Homo sapiens (Human), UniProt Q66K64); experiment: HTRF competition assay, binary interaction with DCAF15; type: binding; conditions: competition with Alexa Fluor 647 tracer
Description: Example 8: Measurement of Binary Interaction Between Compounds and DCAF15 Using Homogeneous Time Resolved Fluorescence (HTRF)
DCAF15 interactions with test compounds were monitored using HTRF competition assays (Cisbio, Bedford, MA). Test compounds were first collected in a 384-well microplate (cat. #781280, Grenier Bio-One, Monroe, NC) as 10 mM stocks in 100% dimethyl sulfoxide (DMSO). A second stock plate (cat. #781280, Grenier Bio-One, Monroe, NC) was prepared through 3-fold serial dilution in DMSO of the afore-mentioned stocks using a Mosquito HTS dispenser (mosquito@ HTS, SPT Labtech, Boston, MA). 0.2 μL of these diluted stocks were then dispensed into a 384-well Optiplate (cat. #6007290, Perkin Elmer, Waltham, MA) in duplicate wells, to assemble the assay plate. The tracer molecule containing an Alexa Fluor 647 probe was prepared in 25 mM HEPES pH 7.5, 100 mM NaCl, 0.1 mg/ml BSA, 0.005% Tween 20, 0.5 mM TCEP (dilution buffer) to 612 nM (2.04×). Separately, His-tagged DCAF15 complex was prepared at 32 nM (4×) in the dilution buffer, and mAb Anti-6His-Eu cryptate Gold (cat. #61H12KLA, Cisbio, Bedford, MA) at 4× dilution in the detection buffer (cat. #61DB9RDF, Cisbio, Bedford, MA). These two solutions were mixed and incubated for 15 min at room temperature. 9.8 μL of the tracer solution and 10 μL of the DCAF15/mAb Anti-6His-Eu cryptate Gold mixture were added sequentially to each well in the assay plate. Reaction mixtures with no DCAF15 added were included as positive controls. The final mixture was incubated for an hour at room temperature and spun down briefly before data collection at 615 nm and 666 nm using EnVision 2104 Multilabel Plate Reader (Perkin Elmer, Bedford, MA). Binding was estimated based on ratiometric analysis and titration curves were generated in GraphPad Prism (7.00, GraphPad, La Jolla, CA).

RBM39 = RBM39 (Homo sapiens (Human), UniProt Q14498+Q66K64); experiment: Western blot assay for degradation of RBM39 in HCT116 cells; type: cell-based; conditions: Incubation Time: 4 hours, read-out: RBM39 Degradation: IC50 (uM) [Incubation Time: 4 hours]
Description: Example 9: Western Blot Assay Procedure for Assessing Degradation of RBM39 in HCT116 Cells
HCT116 cells were used with passage numbers ranging from 13 to 25. Cells were seeded in 12-well plated at a density of 1 million cells per well in 1 mL cell culture medium containing McCoy's 5A medium (Cat. #16600082, ThermoFisher, Waltham, MA), 10% Fetal Bovine Serum (Cat. #26140, ThermoFisher, Waltham, MA) and 1% Pen-Strep (Cat. #. 15070063, ThermoFisher, Waltham, MA) and incubated overnight. The next morning, compounds were serially diluted (1:3, 9 points) in the medium separately and were prepared 2× the final assay concentration. Subsequently, 1.0 mL medium containing DMSO or the appropriate concentration of each compound was added to respective wells. The final DMSO concentration in each well was 0.1%. […] Cells were then washed once with 1 mL of ice cold Dulbecco's phosphate-buffered saline (Cat. #28374, ThermoFisher, Waltham, MA) and then lysed with 100 μl of lysis buffer containing 1×RIPA (Cat. #. 89900, ThermoFisher, Waltham, MA) and HALT protease and phosphatase inhibitor (Cat. #78442, ThermoFisher, Waltham, MA) on ice for 10 minutes with intermittent rocking. Lysates were then sonicated in a sonication bath (3 pulses of 10 sec each with 1 min incubation on ice between each pulse). Samples were then centrifuged for 20 min at 14,000 rpm for 20 min. Supernatants were then transferred to fresh microfuge tubes and stored frozen at −80° C. until use. Total protein quantitation in lysate samples was done using the BCA protein quantitation kit following the manufacturer's instructions. […] Band intensity in images was quantified using the Image Studio Lite software (Version 5.2). Signal intensity for RBM-39 specific bands were normalized using the signal intensity for […] band, and percent degradation was assessed by comparing RBM39 signal in compound-treated vs. DMSO-treated samples.

Row | EC50 (DCAF15/RBM39) | IC50 (DCAF15) | DC50 (RBM39) | Compound
1 | ≤ 1000 nM | 1000 to 10000 nM | ≤ 1 µM | O=S1(=O)Cc2ccc(S(=O)(=O)Nc3ccc(Cl)c4c(Cl)c[nH]c34)cc2C1 [Compound 17, N-(3,4-dichloro-1H-indol-7-yl)-1,3-dihydrobenzo[c]thiophene-5-sulfonamide 2,2-dioxide]
2 | ≤ 1000 nM | 1000 to 10000 nM | ≤ 1 µM | O=C1NCc2cc(S(=O)(=O)Nc3ccc(Cl)c4c(Cl)c[nH]c34)ccc2O1 [Compound 42, N-(3,4-dichloro-1H-indol-7-yl)-2-oxo-3,4-dihydro-2H-benzo[e][1,3]oxazine-6-sulfonamide]
3 | ≤ 1000 nM |  | ≤ 1 µM | O=C1CSc2ccc(S(=O)(=O)Nc3ccc(Cl)c4c(Cl)c[nH]c34)cc2N1 [Compound 44, N-(3,4-dichloro-1H-indol-7-yl)-3-oxo-3,4-dihydro-2H-benzo[b][1,4]thiazine-6-sulfonamide]
